Key:
Assay in all cases: Anti-proliferative activity, cell-titre luminescent viability assay
Assay type in all cases: cell-based
[1] = test system: A549 lung (NSLC) cancer cells; conditions: Homo sapiens, 72 hours exposure
Method: (§1) The ability of compounds 1001-1018 and 1037-1039 to inhibit the proliferation of cancer cells representative of neuroblastoma, melanoma, prostate cancer, colorectal cancer, non-small cell lung carcinoma, and triple negative breast cancer was assessed (Table 1).
(§2) Briefly, a pre-determined number of cells as calculated from cell growth assays for each of the cell lines employed were seeded into their respective culture medium (using ATCC culture parameters—http://www.atcc.org) and cultured for 24 hours at 37° C. and 5% CO2 in 96-well culture plates. Once attached, each cell line was then exposed to increasing concentrations of each respective analogue (0.03, 0.3, 3 and 30 μM for compounds 1001-13 and 1015-18; 0.1, 0.3, 1, 3, 10 and 30 μM for compounds 1014 and 1037-39), cultured for a further 72 hours and exposed to cell-titre luminescent reagent (100 μL/well) for a further 30 minutes) to measure cell viability. Luminescence was captured using an EnVision multilabel reader and the data for each analogue concentration compared against no treatment control. For compounds 1001-13 and 1015-18, semi-log plots of Percent of Control versus concentration were prepared and IC50 determined using linear regression analysis. For compounds 1014 and 1037-39, cell viability was normalized to control (vehicle alone) and dose-response curves, and half maximal effective concentration (EC50) values were determined using Graph Pad Prism 6 (nonlinear regression sigmoidal dose-response variable slope).

[2] = test system: CaCo2 colorectal cancer cells; conditions: Homo sapiens, Caco-2, 72 hours exposure
Method: as §1, §2

[3] = test system: DU145 prostate cancer cells; conditions: Homo sapiens, DU-145, 72 hours exposure
Method: as §1, §2

[4] = test system: MDA-MB-231 breast cancer cells; conditions: Homo sapiens, 72 hours exposure
Method: as §1, §2

[5] = test system: PC3 prostate cancer cells; conditions: 72 hours exposure
Method: as §1, §2

SK-Mel-28 melanoma cells = conditions: Homo sapiens, 72 hours exposure
Method: as §1, §2

[6] = test system: SK-N-SH neuroblastoma cells; conditions: Homo sapiens, 72 hours exposure
Method: as §1, §2

IC50 [1] [µM] | IC50 [2] [µM] | IC50 [3] [µM] | IC50 [4] [µM] | IC50 [5] [µM] | IC50 (SK-Mel-28 melanoma cells) [µM] | IC50 [6] [µM] | Compound
3.4 | 3.7 | 3.7 | 4.5 | 6.1 | 3.7 | 3.4 | CN(C)CCCn1c2ccccc2c2cc(C(=O)N3CCN(CCc4ccc(F)cc4)CC3)ccc21 [Compound 1002, (9-(3-(dimethylamino)propyl)-9H-carbazol-3-yl)(4-(4-fluorophenethyl)piperazin-1-yl)methanone]
3.4 | 3.7 | 3.6 | 4.3 | 3.1 | 3.2 | 3.1 | COc1ccc(CCN2CCN(C(=O)c3ccc4c(c3)c3ccccc3n4CCCN(C)C)CC2)cc1 [Compound 1003, (9-(3-(dimethylamino)propyl)-9H-carbazol-3-yl)(4-(4-methoxyphenethyl)piperazin-1-yl)methanone]
3.5 | 3.8 | 3.2 | 4.1 | 3.3 | 3.5 | 3.3 | CN(C)CCCn1c2ccccc2c2cc(C(=O)N3CCN(CCc4cccc(F)c4)CC3)ccc21 [Compound 1005, (9-(3-(dimethylamino)propyl)-9H-carbazol-3-yl)(4-(3-fluorophenethyl)piperazin-1-yl)methanone]
3.5 | 4.1 | 4.4 | 3 | 5.2 | 3.5 | 3.4 | COc1cccc(CCN2CCN(C(=O)c3ccc4c(c3)c3ccccc3n4CCCN(C)C)CC2)c1 [Compound 1006, (9-(3-(dimethylamino)propyl)-9H-carbazol-3-yl)(4-(3-methoxyphenethyl)piperazin-1-yl)methanone]
3.8 | 6.7 | 4 | 3.5 | 4.8 | 2.5 | 3.3 | CCN(CC)CCCn1c2ccccc2c2cc(C(=O)N3CCN(CCc4ccc(OC)cc4)CC3)ccc21 [Compound 1008, (9-(3-(diethylamino)propyl)-9H-carbazol-3-yl)(4-(4-methoxyphenethyl)piperazin-1-yl)methanone]
4 | 5 | 12.1 | 4.5 | 4.6 | 4.1 | 4.8 | CCN(CC)CCCn1c2ccccc2c2cc(C(=O)N3CCN(CCc4ccc5c(c4)OCO5)CC3)ccc21 [Compound 1009, (4-(2-(benzo[d][1,3]dioxol-5-yl)ethyl)piperazin-1-yl)(9-(3-(diethylamino)propyl)-9H-carbazol-3-yl)methanone]
3.6 | 4.1 | 3.7 | 4.2 | 3.7 | 3.9 | 3.3 | CCN(CC)CCCn1c2ccccc2c2cc(C(=O)N3CCN(CCc4cccc(F)c4)CC3)ccc21 [Compound 1010, (9-(3-(diethylamino)propyl)-9H-carbazol-3-yl)(4-(3-fluorophenethyl)piperazin-1-yl)methanone]
3.8 | 4 | 4.5 | 2.5 | 5.5 | 3.4 | 4.2 | CCN(CC)CCCn1c2ccccc2c2cc(C(=O)N3CCN(CCc4cccc(OC)c4)CC3)ccc21 [Compound 1011, (9-(3-(diethylamino)propyl)-9H-carbazol-3-yl)(4-(3-methoxyphenethyl)piperazin-1-yl)methanone]
3.2 | 2.8 | 3.5 | 3.1 | 4.1 | 2.8 | 2.9 | CCN(CC)CCCn1c2ccccc2c2cc(C(=O)N3CCN(CCc4ccccc4)CC3)ccc21 [Compound 1012, (9-(3-(diethylamino)propyl)-9H-carbazol-3-yl)(4-phenethylpiperazin-1-yl)methanone]
31.1 | 13.8 | 40.2 | 10.2 | 3.8 | 5.1 | 8.8 | COc1ccc(CCN2CCN(C(=O)c3ccc4c(c3)c3ccccc3n4CCCN3CCN(C)CC3)CC2)cc1 [Compound 1014, (4-(4-methoxyphenethyl)piperazin-1-yl)(9-(3-(4-methylpiperazin-1-yl)propyl)-9H-carbazol-3-yl)methanone]
4 | 5.5 | 15.5 | 4.4 | 5.3 | 3.4 | 5.1 | CN1CCN(CCCn2c3ccccc3c3cc(C(=O)N4CCN(CCc5ccc6c(c5)OCO6)CC4)ccc32)CC1 [Compound 1015, (4-(2-(benzo[d][1,3]dioxol-5-yl)ethyl)piperazin-1-yl)(9-(3-(4-methylpiperazin-1-yl)propyl)-9H-carbazol-3-yl)methanone]
3.6 | 4.6 | 6.6 | 3.7 | 5.2 | 4 | 4.7 | COc1cccc(CCN2CCN(C(=O)c3ccc4c(c3)c3ccccc3n4CCCN3CCN(C)CC3)CC2)c1 [Compound 1017, (4-(3-methoxyphenethyl)piperazin-1-yl)(9-(3-(4-methylpiperazin-1-yl)propyl)-9H-carbazol-3-yl)methanone]
16.3 | > 30 | > 30 | > 30 | > 30 | > 30 | > 30 | O=C(c1ccc2[nH]c3ccccc3c2c1)N1CCN(CCc2ccc(F)cc2)CC1 [Compound 1037, (9H-carbazol-3-yl)(4-(4-fluorophenethyl)piperazin-1-yl)methanone]
> 30 | > 30 | > 30 | > 30 | > 30 | > 30 | > 30 | O=C(c1ccc2c(c1)c1ccccc1n2CCc1ccc(F)cc1)N1CCN(CCc2ccc(F)cc2)CC1 [Compound 1039, (9-(4-fluorophenethyl)-9H-carbazol-3-yl)(4-(4-fluorophenethyl)piperazin-1-yl)methanone]

Compound | IC50 [1] [µM] | IC50 [2] [µM] | IC50 [3] [µM] | IC50 [4] [µM] | IC50 [5] [µM] | IC50 (SK-Mel-28 melanoma cells) [µM] | IC50 [6] [µM]
O=C(c1ccc2c(c1)c1ccccc1n2CCCCl)N1CCN(CCc2ccc(F)cc2)CC1 [Compound 1038, (9-(3-chloropropyl)-9H-carbazol-3-yl)(4-(4-fluorophenethyl)piperazin-1-yl)methanone] | > 30 | > 30 | > 30 | > 30 | > 30 | > 30 | > 30
